Measured values from patent US9932637B2, “Genetic polymorphisms associated with cardiovascular disorders and drug response, methods of detection and uses thereof” (CELERA CORPORATION, priority 2003, dated 2018).
Several values for one entry are separate records, joined by “and”; a condition that tells them apart may be missing. Equal values may be shown once.

System: patients with prior myocardial infarction (CARE study)
Test: CARE aligned analysis (prospective and case/control design, white males): association of genotypes with pravastatin efficacy (Tables 13, 15)
Assay type: in vivo, human
Details: for 2 Rare Alleles n/total, Pravastatin Patients / 2 Rare Alleles (%), Pravastatin Patients / Pravastatin Patients (%) / Pravastatin Patients n/total: F&NF MI; for 2 rare alleles n/total (%), pravastatin patients / Pravastatin vs placebo odds ratio, 0 rare alleles / Pravastatin vs placebo odds ratio, 1 rare allele / Pravastatin vs placebo odds ratio, 2 rare alleles: CARE, F MI/SD/NF MI; for Pravastatin Patients (%) / Pravastatin Patients n/total: WM
Method: The data presented in Table 8 based on an association of genotypes with pravastatin efficacy of the CARE samples were further analyzed and presented in Table 13. The further analysis was performed to align the data obtained from the analysis of the CARE samples, which was a prospective study, to the analysis of the WOSCOP samples, which was a case/control study. Table 13 also presents an analysis of the association of genotypes with pravastatin efficacy in the WOSCOPs samples. Relative to the analysis performed on the data presented in Table 8, there are two significant differences to determine if the SNP influenced pravastatin efficacy. Data obtained from the CARE samples were separated by study design into two groups, those in the prospective study design group and those in the case/control study design group. The original care study contained 16 protocol defined cardiovascular disease defined endpoints and 150 other phenotypes. […] The control groups used to compare the data were also divided into two groups, the “all possible” control group and the “cleaner” control group. […] Because the participants in the WOSCOPs trial were all white males, only data obtained from white males in the CARE study were analysed. Data from the “all possible” and “cleaner” controls were compared to data obtained from the cases in the prospective study design while only data from “cleaner” controls were compared to cases in the case/control study design. The data from the case/control cohorts were analysed using conditional logistic regression (as opposed to logistic regression used for the original anaylsis).
The anaylsis was refined as described for both Tables 13 and 14.

[1] = F7 hCV783184, CARE Case/Control
[2] = F13A1 hCV11972326, CARE Case/Control
[3] = FABP1 hCV16173091, CARE Case/Control
[4] = FCAR hCV7841842, CARE Case/Control
[5] = FN1 hCV9506149, CARE Case/Control
[6] = GALC hCV25922440, CARE Prospective
[7] = GAPD hCV8921288, CARE Case/Control
[8] = GAPD hCV8921288, CARE Prospective
[9] = HLA-DPB1 hCV8851065, 0 Rare Alleles, CARE Case/Control, All Possible controls
[10] = HLA-DPB1 hCV8851065, 0 Rare Alleles, CARE Case/Control, Cleaner controls
[11] = HLA-DPB1 hCV8851065, 1 Rare Allele, CARE Case/Control, All Possible controls
[12] = HLA-DPB1 hCV8851065, 1 Rare Allele, CARE Case/Control, Cleaner controls
[13] = HLA-DPB1 hCV8851065, Case/Control
[14] = HLA-DPB1 hCV8851065, Prospective
[15] = HLA-DPB1 hCV8851084, 0 Rare Alleles, CARE Case/Control, All Possible controls
[16] = HLA-DPB1 hCV8851084, 0 Rare Alleles, CARE Case/Control, Cleaner controls
[17] = HLA-DPB1 hCV8851084, 0 Rare Alleles, CARE Prospective, Cleaner controls
[18] = HLA-DPB1 hCV8851084, 1 Rare Allele, CARE Case/Control, All Possible controls
[19] = HLA-DPB1 hCV8851084, 1 Rare Allele, CARE Case/Control, Cleaner controls
[20] = HLA-DPB1 hCV8851084, 1 Rare Allele, CARE Prospective, Cleaner controls
[21] = HLA-DPB1 hCV8851084, Case/Control
[22] = HLA-DPB1 hCV8851084, Prospective
[23] = HLA-DPB1 hCV8851085, 0 Rare Alleles, CARE Case/Control, All Possible controls
[24] = HLA-DPB1 hCV8851085, 0 Rare Alleles, CARE Case/Control, Cleaner controls
[25] = HLA-DPB1 hCV8851085, 0 Rare Alleles, CARE Prospective, All Possible controls

In the case of `CC[C@H](C)C(=O)O[C@H]1C[C@H](O)C=C2C=C[C@H](C)[C@H](CC[C@@H](O)C[C@@H](O)CC(=O)O)[C@H]21` [pravastatin], the “2 Rare Alleles n/total, Pravastatin Patients” value (F7 hCV783138, CARE Prospective) is reported as 1/13 and 1/9, the “2 Rare Alleles (%), Pravastatin Patients” value [1] is reported as “(14.3%)” and the “2 Rare Alleles n/total, Pravastatin Patients” value [1] is reported as 2/14. For the same compound, the “2 Rare Alleles (%), Pravastatin Patients” value (F7 hCV783184, CARE Prospective) was “(14.3%)”, the “2 Rare Alleles n/total, Pravastatin Patients” value (F7 hCV783184, CARE Prospective) was 2/14 and the “2 Rare Alleles (%), Pravastatin Patients” value [2] was “(19.4%)”. The “2 Rare Alleles n/total, Pravastatin Patients” value [2] was 14/72, the “2 Rare Alleles (%), Pravastatin Patients” value [3] was “(20.9%)” and the “2 Rare Alleles n/total, Pravastatin Patients” value [3] was 19/91. The “2 Rare Alleles n/total, Pravastatin Patients” value (FABP1 hCV16173091, CARE Prospective) was 19/127 and 19/91, the “2 rare alleles n/total (%), pravastatin patients” value (“2 rare alleles n/total (%)” for short) (FCAR hCV7841642, Prospective) was “(12.5%)” and the “Pravastatin vs placebo odds ratio, 0 rare alleles” value (FCAR hCV7841642, Prospective) was 0.84. The “Pravastatin vs placebo odds ratio, 1 rare allele” value (FCAR hCV7841642, Prospective) was 0.27, the “Pravastatin vs placebo odds ratio, 2 rare alleles” value (FCAR hCV7841642, Prospective) was 0.43 and the “2 Rare Alleles (%), Pravastatin Patients” value [4] was “(12.5%)”. The “2 Rare Alleles n/total, Pravastatin Patients” value [4] was 1/8, the “2 Rare Alleles (%), Pravastatin Patients” value [5] was “(13.8%)” and the “2 Rare Alleles n/total, Pravastatin Patients” value [5] was 12/87. The “2 Rare Alleles (%), Pravastatin Patients” value [6] was “(14.7%)”, the “2 Rare Alleles n/total, Pravastatin Patients” value [6] was 5/34 and the “2 rare alleles n/total (%)” value (GALC hCV25922440, Prospective) was “(14.7%)”. The “Pravastatin vs placebo odds ratio, 0 rare alleles” value (GALC hCV25922440, Prospective) was 0.94, the “Pravastatin vs placebo odds ratio, 1 rare allele” value (GALC hCV25922440, Prospective) was 0.38 and the “Pravastatin vs placebo odds ratio, 2 rare alleles” value (GALC hCV25922440, Prospective) was 1.12. The “2 Rare Alleles (%), Pravastatin Patients” value [7] was “(7.5%)”, the “2 Rare Alleles n/total, Pravastatin Patients” value [7] was 4/53 and 4/38 and the “2 Rare Alleles (%), Pravastatin Patients” value [8] was “(10.5%)”. The “2 Rare Alleles n/total, Pravastatin Patients” value [8] was 4/38, the “Pravastatin Patients (%)” value [9] was “(10.0%)” and the “Pravastatin Patients n/total” value [9] was 63/633. For the same compound, the “Pravastatin Patients (%)” value [10] was “(14.2%)”, the “Pravastatin Patients n/total” value [10] was 63/445 and the “Pravastatin Patients (%)” value [11] was “(10.0%)”. The “Pravastatin Patients n/total” value [11] was 49/491, the “Pravastatin Patients (%)” value [12] was “(14.9%)” and the “Pravastatin Patients n/total” value [12] was 49/329. For the same compound, the “2 rare alleles n/total (%)” value [13] was “(14.8%)”, the “Pravastatin vs placebo odds ratio, 0 rare alleles” value [13] was 0.60 and 0.52 and the “Pravastatin vs placebo odds ratio, 1 rare allele” value [13] was 0.87 and 0.80. The “Pravastatin vs placebo odds ratio, 2 rare alleles” value [13] was 5.02 and 5.41, the “2 rare alleles n/total (%)” value [14] was “(14.8%)” and the “Pravastatin vs placebo odds ratio, 0 rare alleles” value [14] was 0.62 and 0.55. For the same compound, the “Pravastatin vs placebo odds ratio, 1 rare allele” value [14] was 0.86 and 0.76, the “Pravastatin vs placebo odds ratio, 2 rare alleles” value [14] was 4.85 and 4.94 and the “Pravastatin Patients (%)” value [15] was “(10.2%)”. The “Pravastatin Patients n/total” value [15] was 80/785, the “Pravastatin Patients (%)” value [16] was “(14.7%)” and the “Pravastatin Patients n/total” value [16] was 80/546. For the same compound, the “Pravastatin Patients (%)” value [17] was “(14.4%)”, the “Pravastatin Patients n/total” value [17] was 80/556 and the “Pravastatin Patients (%)” value [18] was “(10.1%)”. For the same compound, the “Pravastatin Patients n/total” value [18] was 39/385, the “Pravastatin Patients (%)” value [19] was “(14.9%)” and the “Pravastatin Patients n/total” value [19] was 39/262. For the same compound, the “Pravastatin Patients (%)” value [20] was “(14.7%)”, the “Pravastatin Patients n/total” value [20] was 39/265 and the “2 Rare Alleles (%), Pravastatin Patients” value (HLA-DPB1 hCV8851084, CARE Prospective) was “(25.0%)”. For the same compound, the “2 rare alleles n/total (%)” value [21] was “(22.6%)”, the “Pravastatin vs placebo odds ratio, 0 rare alleles” value [21] was 0.60 and the “Pravastatin vs placebo odds ratio, 1 rare allele” value [21] was 0.84. The “Pravastatin vs placebo odds ratio, 2 rare alleles” value [21] was 5.83, the “2 rare alleles n/total (%)” value [22] was “(22.6%)” and the “Pravastatin vs placebo odds ratio, 0 rare alleles” value [22] was 0.61. The “Pravastatin vs placebo odds ratio, 1 rare allele” value [22] was 0.82, the “Pravastatin vs placebo odds ratio, 2 rare alleles” value [22] was 4.81 and the “Pravastatin Patients (%)” value [23] was “(10.1%)”. For the same compound, the “Pravastatin Patients n/total” value [23] was 74/733, the “Pravastatin Patients (%)” value [24] was “(14.4%)” and the “Pravastatin Patients n/total” value [24] was 74/513. The “Pravastatin Patients (%)” value [25] was “(9.9%)” and the “Pravastatin Patients n/total” value [25] was 74/747.
